Laboratory results taken from publication PMC12406664, “New derivatives of 6-nitrocoumarin-3-thiosemicarbazone exhibit improved antiparasitic activity in the placenta against Trypanosoma cruzi and Toxoplasma gondii” (Antimicrobial Agents and Chemotherapy, 2025).
“Also recorded” adds a separate entry of the source.

Key:
[1] = test system: T. gondii tachyzoites, RH strain; assay: Resazurin viability assay on free T. gondii tachyzoites; assay type: cell-based, Toxoplasma gondii
Excerpt: Untreated parasites served as a negative control.

[2] = test system: intracellular amastigotes of T. cruzi (Tulahuen β-gal); assay: Intracellular amastigotes, β-galactosidase-expressing T. cruzi in LLC-MK2 cells (CPRG); assay type: cell-based, Trypanosoma cruzi; details: 72 h
Procedure: The effect of the compounds over intracellular amastigotes of a β-galactosidase-expressing recombinant strain of T. cruzi (Tulahuen β-gal) was also evaluated (see Table S4 at https://doi.org/10.5281/zenodo.15694236). […] Similarly, intracellular anti-T. gondii tachyzoite was assessed using quantitative immunocytochemistry targeting the parasite’s P30 protein (see Table S4 at https://doi.org/10.5281/zenodo.15694236). […] The complete absence of activity of hydroxylated compounds against intracellular forms of both parasites was confirmed, which could be attributed to their inability to permeate mammalian cell membranes.
LLC-MK2 cells (2 × 10^4/well), suspended in 200 µL DMEM with 10% FBSi and 1% antibiotics (penicillin-streptomycin), were placed in each well of a 96-well plate and incubated for 24 hours. Subsequently, the culture medium was removed, and cell monolayers were infected by placing five trypomastigotes per cell in 200 µL of DMEM 2 for 24 hours under the same incubation conditions. After infection, the culture medium was removed, and cells were washed 4 times with 1× sterile PBS. Finally, 10 twofold serial dilutions (200 µM to 0.39 µM concentration range) of each compound, in DMEM 2 without phenol red, were placed in duplicate wells in a 96-well plate and incubated for 72 hours. […] Absorbance at 600 nm was read 4 hours later, in a multimodal GloMax microplate reader (Promega).

[3] = Cyclic voltammetry, reduction potentials in DMSO (HDME, vs. Ag/AgCl); details: 2.00 V/s
Procedure: Electrochemical studies were carried out on a Metrohm Autolab instrument model PGSTAT204, using dimethyl sulfoxide (DMSO) as the solvent (1 mM solutions), tetrabutylammonium perchlorate (0.1 M TBAP) as the supporting electrolyte, a hanging drop mercury electrode (HDME) as the working electrode, Ag/AgCl (3M KCl) as the reference electrode and a graphite rod as the counter electrode. All measurements were performed after bubbling with nitrogen (N2) for 10 minutes.

[4] = Lipophilicity by reversed-phase TLC (RM); details: reverse phase-C18, DMSO/phosphate buffer pH 7.4 (70:30 vol/vol), RM = log[(1/Rf) – 1]
Procedure: Lipophilicity was studied by reversed-phase TLC experiments. Precoated TLC plates SIL RP-18W/UV254 were used and eluted with DMSO/physiological serum (70:30, vol/vol). Stock solutions were prepared in pure DMSO (Aldrich) prior to use. The plates were developed in a closed chromatographic tank, dried, and the spots were located under UV light. The Rf values were averaged from three determinations and converted into RM values via the relationship: RM = log [(1/Rf)−1]

[5] = test system: T. cruzi trypomastigotes, Dm28 strain; assay: Resazurin viability assay on free T. cruzi trypomastigotes; details: Trypanosoma cruzi, 24 h, read-out: Viability T. cruzi (%)
Procedure: The reduction of resazurin sodium salt was used to determine the trypanocidal and toxoplasmicidal activity of the 6-nitrocoumarin-thiosemicarbazone hybrids 1–8. For this, treatment with the compounds was carried out for 24 h at a concentration of 100 µM.
NFX was used as a positive control for T. cruzi, and PMN was used for T. gondii. Untreated parasites served as a negative control. […] Subsequently, parasites with their respective conditions were transferred to a 96-well white fluorescence reading plate, adding resazurin at a final concentration of […] with 0.8 mM phenazine. The plate was incubated for 3 hours at 37°C in a humidified atmosphere with 5% CO2, and fluorescence measurements were taken using a microplate reader (Thermo Scientific Varioskan Flash) at excitation wavelengths of 560 nm and emission wavelengths of 590 nm.

[6] = test system: T. gondii (RH strain) in HPE; assay: T. gondii DNA load in infected human placental explants (HPE) by real-time qPCR; assay type: cell-based, Toxoplasma gondii; details: IC50 concentration
Procedure: The effect on HPE infection of compounds 1 and 7 by Toxoplasma gondii and Trypanosoma cruzi, respectively, was evaluated. To do this, the DNA of the T. gondii or T. cruzi parasite was quantified by infecting HPE for 24 hours under treatment conditions of co-incubation of compounds with the parasite at the same time of infection, and with a 24 hour post-infection treatment. The compound’s IC50 concentration value previously obtained under both conditions was used.
Term human placentas were obtained from uncomplicated pregnancies via scheduled cesarean sections. Each patient provided informed consent for the experimental use of the placenta, and the study was approved by the ethics committee of Hospital San José, Servicio Salud Metropolitano Norte (N° 013/2022). Exclusion criteria for placental use included significant fetal anomalies, placental tumors, intrauterine infection, positive serology for Chagas disease, obstetric pathology, and any other maternal disease. Donor patients tested negative for T. gondii IgG/IgM antibodies. Organs were collected in sterile, cold PBS and processed within 30 minutes after delivery. Maternal and fetal surfaces of each placenta were discarded, and the villous tissue from the central part of the placental cotyledons was isolated. […] All the experiments were performed in triplicate in at least three different placentas.
Cells or HPE were exposed to parasites. […]
Subsequently, cells were exposed to parasites at a 1:1 ratio (cell: parasite) for 24 hours. […] The resulting DNA was quantified using a μDrop Plate DNA quantification system on the Varioskan Flash multimode reader (Thermo Scientific, USA). […]
(§1) Amplification was carried out using the CFX96 Touch Deep Well Real-Time PCR Detection System (Biorad, California, USA) with the following cycling program: initial denaturation at 95°C for 3 min, followed by 40 cycles of denaturation at 95°C for 5 s, annealing at 60°C for 30 s, and a dissociation stage ranging from 60°C to 95°C. The relative quantification analysis of the results was expressed as RQ values using the comparative […] (∆∆Ct) ([80]).

[7] = test system: HPE exposed to T. gondii tachyzoites; assay: Histopathology of HPE infected with T. gondii; assay type: cell-based, human; details: IC50 concentration
Excerpt: (§2) Cells or HPE were exposed to parasites. […] The following treatment conditions were used in both infection models. […] Untreated cells or HPE served as a negative control, and the compounds’ activity was compared with the reference drugs (NFX and PMN).

[8] = Cytotoxicity on cells (resazurin), EA.hy926; assay type: cell-based; details: human, EA.hy926 endothelial cells
Excerpt: (§3) Triton X-100 was used as a positive control, and untreated cells served as a negative control. In addition, the maximum concentration of DMSO was used as a control for the method. […] The obtained values were expressed as IC50([88]).

[9] = test system: T. gondii (RH strain) in BeWo cells; assay: T. gondii DNA load in infected BeWo cells by real-time qPCR; assay type: cell-based, Toxoplasma gondii; details: IC50 concentration
Procedure: as §2
Subsequently, cells were exposed to parasites at a 1:1 ratio (cell: parasite) for 24 hours. Finally, the cells were washed with PBS and harvested using trypsin. For the parasitic DNA load in the ex vivo infection model, HPE was incubated in 24-well plates and exposed to parasites at a concentration of 10^5 parasites/mL for 24 hours. Finally, they were washed with PBS and homogenized using the ultraturrax homogenizer OMNI TipTM. Genomic DNA was extracted from BeWo cells or HPE using the Wizard Genomic DNA Purification Kit (Promega, USA) following the manufacturer’s instructions. The resulting DNA was quantified using a μDrop Plate DNA quantification system on the Varioskan Flash multimode reader (Thermo Scientific, USA). For the amplification of human DNA and parasitic DNA, three pairs of primers specific for human GAPDH (hGADPH), T. cruzi satellite DNA, and T. gondii B1 gene DNA were used (Table 7). Each reaction mixture contained 0.5 µL of 10 nM of each primer (Forward and reverse), 1 ng of DNA from T. cruzi samples, 10 ng of DNA from T. gondii samples, 10 µL of SensiFASTTM SYBR Hi-ROX kit (Bioline, Heidelberg, Baden Württemberg, Germany), and ultrapure water (Sigma-Aldrich, St. Louis, MO, USA) for a total of 20 µL.
as §1

[10] = test system: T. gondii (RH strain) in BeWo cells; assay: Infection of BeWo cells by T. gondii, infected cells counted by fluorescence microscopy; assay type: cell-based, Toxoplasma gondii; details: compound at IC50, untreated control 64 ± 6
Procedure: The effect of the compounds on the infection of BeWo trophoblast cells by T. gondii and T. cruzi was assessed. The DNA of T. gondii and T. cruzi was quantified in infected BeWo cells treated for 24 hours under two conditions: co-incubation and post-infection treatment. […] Fluorescence microscopy was employed to quantify the number of infected cells. The resulting images were analyzed using ImageJ software to count both infected and uninfected cells.
For the microscopic analysis of BeWo cells infected with T. cruzi, the cells were washed with PBS to remove the supernatant, fixed with 90% cold methanol, rewashed with PBS, and incubated for 5 minutes with 1 µg/mL—1 4,6-diamidino-2-phenylindole (DAPI) (Molecular Probes). To analyze BeWo cells infected with T. gondii, cells were fixed with 90% cold methanol, washed with PBS containing 0.05% Tween, and blocked using 3% BSA for 1 hour at 37°C. Then, they were incubated with the primary monoclonal antibody Toxoplasma gondii (TP3): sc-52255 at a dilution of 1:500 with 1% BSA overnight at 4°C. Afterward, the samples were incubated with the FITC anti-mouse IgG secondary antibody at a dilution of 1:100 with 1% BSA for 1 hour at 37°C. Finally, they were washed with PBS containing 0.05% Tween and incubated for 5 minutes with DAPI. Subsequently, the sections were mounted in Vectashield (ScyTek ACA). Sections for the analysis of cell infection by T. cruzi and T. gondii were observed under an epifluorescence microscope (Motic BA 310), and images were captured with a Motic 5 camera. T. cruzi amastigotes were identified by their morphology, including nuclear size and the presence of a kinetoplast, and were analyzed and quantified using ImageJ. At least 500 cells per condition were analyzed, and infected and non-infected cells were counted for every 100 cells ([35], [70]).
as §2

[11] = Cytotoxicity on cells (resazurin), BeWo; assay type: cell-based; details: human, BeWo trophoblast cells
Excerpt: as §3

[12] = test system: human placental explants (HPE); assay: Histopathology of uninfected HPE exposed to the compounds alone; details: explants incubated only with the compound, 24 h, IC50 concentration
Procedure: The HPE was fixed in 10% formaldehyde in 0.1 M phosphate buffer (pH 7.3) for 24 h, dehydrated in alcohol, clarified in xylene, embedded in paraffin, and sectioned at 3 µm. Paraffin histological sections were stained with hematoxylin-eosin for routine histological analysis, Picro Sirius red, and trichromic Masson for collagen histochemistry. Sections for the histological analysis were observed under an optical microscope (Leica DM500) and images were captured with a Leica ICC50 W camera ([7], [91]).

[13] = test system: T. gondii tachyzoites (strain RH); assay: ESR spin trapping with DMPO in T. gondii; assay type: cell-based, Toxoplasma gondii; details: compound about 1 mM, menadione 20 µM
Procedure: (§4) Each tested hybrid was dissolved in spectroscopy-grade DMSO at an approximate concentration of 1 mM and added to a mixture containing Trypanosoma cruzi (Dm28c strain) or Toxoplasma gondii at a density of 50 × 10⁶ trypomastigotes or tachyzoites per mL, along with DMPO at a final concentration of 250 mM. Menadione (20 µM) was used as a positive control.
(§5) All spectra were acquired on the same scale after 15 scans.

[14] = test system: T. cruzi trypomastigotes (strain Dm28); assay: ESR spin trapping with DMPO in T. cruzi; assay type: cell-based, Trypanosoma cruzi; details: compound about 1 mM, menadione 20 µM
Procedure: as §4, §5

[15] = test system: T. gondii tachyzoites (strain RH); assay: Intracellular ROS generation (DCF probe) in T. gondii; assay type: cell-based, Toxoplasma gondii; details: compound at IC50, menadione 20 µM, 40 minutes, vs untreated control
Procedure: ROS detection was performed using the 2′,7′-dichlorodihydrofluorescein diacetate (DCFH2-DA) method ([45]). For the assay, Dm28c trypomastigotes and tachyzoites were seeded in 96-well plates at a density of 10⁶ parasites/mL. In contrast, BeWo cells were seeded at 5 × 10⁴ cells per well, using the previously described culture medium.
After incubation with 20 µM DCFH2-DA for 15 minutes at 37°C, the parasites were centrifuged at 3,500 × g, washed twice with PBS (pH 7.4), and subsequently transferred to Nunc 96-well fluorescence plates. Meanwhile, after 24 hours of incubation at 37°C and 5% CO₂, the culture medium of BeWo cells was replaced, and 20 µM DCFH2-DA solution was added, followed by a 15 minute incubation at 37°C. The cells were then washed with PBS at pH 7.4. As a positive control, 20 µM menadione was used, while the negative control consisted of culture medium without compounds.
Over time, the area under the fluorescence increase curve was determined using Origin 8 software (version 9.2), with normalization relative to the control. The results correspond to three independent experiments' mean ± standard deviation (SD).

C/C(=N\NC(=S)Nc1ccccc1)c1cc2cc([N+](=O)[O-])ccc2oc1=O [Compound 8, (E)−2-(1-(6-nitro-2-oxo-2H-chromen-3-yl)ethylidene)-N-phenylhydrazine-1-carbothioamide]
viability at 100 µM ([1]; Toxoplasma gondii, tachyzoites RH, 100 µM, 24 h): 86.2 ± 14.4% | activity over intracellular amastigotes [2]: most active | E(pIIa) ([3]; anodic peak IIa): −0.86 V | E(pIIIc) ([3]; cathodic peak IIIc, hydroxylamine formation): −1.39 V | E(pIIc) ([3]; cathodic peak IIc, nitro anion radical couple): −0.94 V | E(pIVc) ([3]; cathodic peak IVc, imine reduction): −1.68 V | Lipophilicity (RM) [4]: 0.20 | viability at 100 µM [5]: 45.2 ± 6.7%

CCc1nc(N)nc(N)c1-c1ccc(Cl)cc1 [PMN, pyrimethamine, reference compound]
effect on parasite DNA load ([6]; 24 hour post-infection treatment): decreased; also recorded: effectively reduced the explants’ parasitic load | effect on parasite DNA load ([6]; co-incubation): effectively reducing the parasitic load | IC50 ([1]; Toxoplasma gondii, extracellular tachyzoites RH strain, 24 h, resazurin): 20.8 ± 1.1 µM | SI = BeWo CC50/parasite IC50 ([1]; parasite T. gondii): 6.03 | SI = EA.hy926 CC50/parasite IC50 ([1]; parasite T. gondii): 13.8 | tissue damage in infected HPE (histopathology) ([7]; co-incubation): without causing tissue damage | tissue damage in infected HPE (histopathology) ([7]; post-infection treatment): decreased the induced tissue damage | CC50 at 24 h [8]: 287.5 ± 0.9 µM | effect on parasite DNA load ([9]; co-incubation): more significant | effect on parasite DNA load ([9]; post-infection treatment): significantly reduced the parasite DNA load | Infected cells (%) ([10]; co-incubation 24 h): 19 ± 2% | Infected cells (%) ([10]; post-infection treatment 24 h): 16 ± 4% | CC50 at 24 h [11]: 125.5 ± 0.8 µM | tissue damage caused by the compound itself in HPE [12]: neither compound induced tissue damage

CC1=CC(=O)c2ccccc2C1=O [menadione, reference compound]
radical species detected by ESR spin trapping (DMPO) [13]: formation of multiple signals | radical species detected by ESR spin trapping (DMPO) [14]: triplet (aN ~15.5 G) corresponding to a DMPO-derived oxidized paramagnetic compound | ROS generation (DCF fluorescence) [15]: significant increase in ROS production
